Laboratory results reported in patent US20150038473A1, “STABLE POVIDONE-IODINE COMPOSITIONS WITH STEROIDS OR NON-STEROIDAL ANTI-INFLAMMATORIES” (FORESIGHT BIOTHERAPEUTICS, INC., priority 2011, published 2015).
Several values for one entry are separate records, joined by “and”; a condition that tells them apart may be missing. Equal entries are not always repeated.

Assays:
[1] = Stability testing of steroids and NSAIDS combined with 0.6% povidone iodine at room temperature
Method: Steroids and NSAIDS were mixed with PVP-I at the concentration of 0.6% w/w on Day 1. The resultant mixtures will be split to glass vials and stored at room temperature. fluorometholone alcohol, medrysone, prednisone sodium phosphate, rimexolone, hydrocortisone, hydrocortisone acetate, lodoxamide tromethamine, nepafenac, bromfenac, and ketorolac. Testing timepoints included day 0 (Time Zero), and week 4. Tests were conducted at room temperature. The testing samples were analyzed using liquid chromatography and tandem mass spectrometry (LC/MS/MS) methods at Day 0, and Week 4. The steroids and NSAIDS standards were also analyzed and steroids and NSAIDS levels in testing samples were determined.
For Tables VIII-XIII, a: Nominal concentration in HPLC samples; b: Calculated concentration in HPLC samples; c: Dilution factor; d: Calculated concentration in stability samples; e: Spiked 50 μL of H2O and stored at room temperature without PVP-I.

[2] = Stability testing of steroids combined with povidone iodine (PVP-I, 0.4%), HPLC/UV with LC-MS/MS confirmation; details: for degradation products observed: two week and/or one month samples in the presence of PVP-I 0.4%
Method: PVP-I was prepared in water at the concentration of 100 mg/mL (10%). One milliliter of the solution, suspension, or emulsion was mixed with 40 μL of 10% PVP-I in 1.5 mL amber glass vials, followed by storage under both room temperature and 40° C. for 2 weeks and one month. The resultant samples in the presence of PVP-I were analyzed using HPLC. The four steroid levels were measured against the reference standard samples stored under room temperature in the absence of PVP-I (0.4%).
Weigh 1 g of PVP-I and dissolve in 10 mL of water.
Aliquot 1 mL of ophthalmic solution (USP, 0.1%) into eight amber HPLC vials to give the following samples:
Used the resultant samples as time zero samples for HPLC analysis.
The same as Method 1 except the gradient was changed as follows: […]
The software provided with the HPLC system (LCSolution™ software, version 1.23, installed by SHIMADZU) was used to integrate the peak area.
The measured peak area was converted into concentrations (μg/mL) using the following equation: […]
HPLC Methods: The same as HPLC Method 1, 2, and 3 under Section 2.4.
The Day 0, Two Week, and One Month stability test samples were analyzed with reference standard samples (stored at room temperature in the absence of PVP I) using HPLC Method 1. The sample in the absence of PVP-I with the same concentration of dexamethasone phosphate as those stability samples at the presence of PVP-I was stored in the same stability chamber at 40° C. for one month as control sample. The control sample was analyzed under the same conditions. The concentrations of dexamethasone phosphate in the stability samples were calculated. The HPLC/UV chromatograms of all reference standards and stability testing samples are depicted in FIG. 6 to FIG. 13.
(§1) The Day 0, Two Week, and One Month stability test samples were analyzed with reference standard samples (stored at room temperature in the absence of PVP I) using HPLC Method 2. The sample in the absence of PVP-I with the same concentration of prednisolone acetate as those stability samples at the presence of PVP-I was stored in the same stability chamber at 40° C. for two week and one month as control samples. The control samples were analyzed under the same conditions. The concentrations of prednisolone acetate in the stability samples were calculated. The data were summarized in Table V. The HPLC/UV chromatograms of all reference standards and stability testing samples are depicted in FIG. 18 to FIG. 23.
as §1, with “3.” for “2.”, “loteprednol etabonate” for “prednisolone acetate”, “calculated.” for “calculated. The data were summarized in Table V.”, “28” for “18”, “33.” for “23.”
as §1, with “3.” for “2.”, “difluprednate” for “prednisolone acetate”, “calculated.” for “calculated. The data were summarized in Table V. The HPLC/UV chromatograms of all reference standards and stability testing samples are depicted in FIG. 18 to FIG. 23.”

[3] = Day 0, room temperature, 0.6% PVP-I, mean of replicates
[4] = Day 0, room temperature, 0.6% PVP-I, single replicates
[5] = four weeks control, spiked 50 μL of H2O, room temperature without PVP-I
[6] = four weeks, room temperature, 0.6% PVP-I, mean of replicates
[7] = four weeks, room temperature, 0.6% PVP-I, single replicates
[8] = 2 weeks, 40° C., with PVP-I 0.4%
[9] = 2 weeks, room temp, with PVP-I 0.4%
[10] = one month, 40° C., with PVP-I 0.4%, mean of two runs
[11] = one month, 40° C., with PVP-I 0.4%, single samples
[12] = one month, room temp, with PVP-I 0.4%
[13] = 2 weeks, 40° C. control, stored without PVP-I
[14] = Day 0, room temp, with PVP-I 0.4%, mean of replicates
[15] = Day 0, room temp, with PVP-I 0.4%, single replicates
[16] = one month, 40° C. control, stored without PVP-I

% of Std [1, 3] | % of Std [1, 4] | % of Day 0 [1, 5] | % of Std [1, 5] | % of Day 0 [1, 6] | % of Std [1, 6] | % of Day 0 [1, 7] | % of Std [1, 7] | % of Day 0 [2, 8] | % of Day 0 [2, 9] | % of Day 0 [2, 11] | % of Day 0 [2, 12] | SMILES | also measured
98.86% | 99.74% and 97.96% | 101.19% | 100.03% | 99.37% | 98.23% | 100.01% and 98.73% | 98.87% and 97.6% |  |  |  |  | Nc1c(CC(=O)O)cccc1C(=O)c1ccc(Br)cc1 [Bromfenac, bromfenac] | 
 |  |  |  |  |  |  |  | 99.30% | 103.23% | 100.24% | 104.47% | CCCC(=O)O[C@]1(C(=O)COC(C)=O)CC[C@H]2[C@@H]3C[C@H](F)C4=CC(=O)C=C[C@]4(C)[C@@]3(F)[C@@H](O)C[C@@]21C [Difluprednate] | % of Day 0 [2, 13]: 89.50%; % of Std [2, 13]: 89.50%; % of Std [2, 8]: 95.57%; % of Std [2, 9]: 99.36%; % of Std [2, 14]: 96.25%; % of Std [2, 15]: 95.78% and 96.72%; % of Day 0 [2, 16]: 97.86%; % of Std [2, 16]: 97.86%; % of Std [2, 11]: 96.48%; % of Std [2, 12]: 100.56%
101.28% | 101.42% and 101.14% | 97.97% | 99.22% | 98.44% | 99.7% | 98.03% and 98.87% | 99.28% and 100.14% |  |  |  |  | CC(=O)[C@@]1(O)CC[C@H]2[C@@H]3C[C@H](C)C4=CC(=O)C=C[C@]4(C)[C@@]3(F)[C@@H](O)C[C@@]21C [Fluorometholone, fluorometholone] | 
100.57% | 101.62% and 99.52% | 101.08% | 101.66% | 100.95% | 101.53% | 100.58% and 101.33% | 101.15% and 101.91% |  |  |  |  | CC(=O)OCC(=O)[C@@]1(O)CC[C@H]2[C@@H]3CCC4=CC(=O)CC[C@]4(C)[C@H]3[C@@H](O)C[C@@]21C [Hydrocortisone acetate, hydrocortisone acetate] | 
 |  |  |  |  |  |  |  | 100.07% | 101.43% | 96.02% | 100.72% | CCOC(=O)O[C@]1(C(=O)OCCl)CC[C@H]2[C@@H]3CCC4=CC(=O)C=C[C@]4(C)[C@H]3[C@@H](O)C[C@@]21C [Loteprednol Etabonate] | % of Day 0 [2, 13]: 101.69%; % of Std [2, 13]: 101.69%; % of Std [2, 8]: 100.54%; % of Std [2, 9]: 101.91%; % of Std [2, 14]: 100.48%; % of Std [2, 15]: 101.00% and 99.95%; % of Day 0 [2, 16]: 97.64%; % of Std [2, 16]: 97.64%; % of Std [2, 11]: 96.48%; % of Std [2, 12]: 101.20%
98.7% | 98.22% and 99.18% | 100.06% | 98.76% | 97.2% | 95.94% | 97.83% and 96.58% | 96.56% and 95.32% |  |  |  |  | NC(=O)Cc1cccc(C(=O)c2ccccc2)c1N [Nepafenac, nepafenac] | 
 |  |  |  |  |  |  |  | 96.60% | 99.24% | 96.79% | 95.66% | CC(=O)OCC(=O)[C@@]1(O)CC[C@H]2[C@@H]3CCC4=CC(=O)C=C[C@]4(C)[C@H]3[C@@H](O)C[C@@]21C [Prednisolone Acetate] | % of Day 0 [2, 13]: 100.74%; % of Std [2, 13]: 100.74%; % of Std [2, 8]: 101.08%; % of Std [2, 9]: 103.84%; % of Std [2, 14]: 104.64%; % of Std [2, 15]: 104.83% and 104.45%; % of Day 0 [2, 16]: 100.29%; % of Std [2, 16]: 100.29%; % of Std [2, 11]: 101.28%; % of Std [2, 12]: 100.10%
97.76% | 97.93% and 97.59% | 102.87% | 100.57% | 95.66% | 93.52% | 95.1% and 96.23% | 92.97% and 94.07% |  |  |  |  | C[C@]12C=CC(=O)C=C1CC[C@@H]1[C@@H]2C(=O)C[C@@]2(C)[C@H]1CC[C@]2(O)C(=O)COP(=O)([O-])[O-].[Na+].[Na+] [Prednisone sodium phosphate, prednisone sodium phosphate] | 
99.67% | 98.83% and 100.5% | 97.41% | 97.09% | 99.88% | 99.55% | 100.23% and 99.53% | 99.9% and 99.2% |  |  |  |  | CCC(=O)[C@@]1(C)[C@H](C)C[C@H]2[C@@H]3CCC4=CC(=O)C=C[C@]4(C)[C@H]3[C@@H](O)C[C@@]21C [Rimexolone, rimexolone] | 
 |  |  |  |  |  |  |  |  |  |  |  | N#Cc1cc(NC(=O)C(=O)O)c(Cl)c(NC(=O)C(=O)O)c1.NC(CO)(CO)CO.NC(CO)(CO)CO [lodoxamide, lodoxamide tromethamine] | stability in PVP-I (result in words) ([1]; 0.6% PVP-I, room temperature, week 4): appeared to be stable

SMILES | % of Std [1, 3] | % of Std [1, 4] | % of Day 0 [1, 5] | % of Std [1, 5] | % of Day 0 [1, 6] | % of Std [1, 6] | % of Day 0 [1, 7] | % of Std [1, 7] | % of Day 0 [2, 8] | % of Day 0 [2, 9] | % of Day 0 [2, 11] | % of Day 0 [2, 12] | also measured
C[C@@H]1C[C@H]2[C@@H]3CCC4=CC(=O)C=C[C@]4(C)[C@@]3(F)[C@@H](O)C[C@]2(C)[C@@]1(O)C(=O)COP(=O)([O-])[O-].[Na+].[Na+] [Dexamethasone Sodium Phosphate] |  |  |  |  |  |  |  |  | 84.57% | 83.04% | 84.42% and 83.76% | 84.24% | stability in the presence of PVP-I (result in words) ([2]; PVP-I 0.4%, room temperature and 40° C., up to one month): not stable; % of Day 0 [2, 10]: 84.09%; % of Std [2, 10]: 87.00%; degradation products observed [2]: three additional peaks; degradation products observed ([2]; listed as dexamethasone phosphate): Three degradation products (D1, D2, and D3) were observed
